According to patent EP1101492A1, “NOVEL REMEDIES FOR ALLERGIC DISEASES” (FUJI YAKUHIN KOGYO KABUSHIKI KAISHA, priority 1998, dated 2000):
Values joined by “and” are separate entries in the source; they are usually repeats but may differ in a detail not shown here. Identical values can stand only once. Like-named read-outs stand apart in the source and are kept apart here.

Tests used:
[1] = system: peripheral blood mononuclear cells (PBMC); test: Antibody (IgG, IgM) production by SAC/IL-2-stimulated peripheral blood mononuclear cells; format: cell-based; conditions: Homo sapiens, 144 h, 6 days incubation; for inhibition at 0.1 µM: final concentration 0.1 µM; for inhibition at 1 µM: final concentration 1 µM; for inhibition at 10 µM: final concentration 10 µM
Experimental: Heparinized peripheral blood derived from a healthy person was diluted 2-fold with phosphate buffered saline (PBS) and applied to density-gradient centrifugation using Ficoll-Paque (Pharmacia Biotech) to give peripheral blood mononuclear cells (PBMC). After isolation, PBMC was rinsed with PBS, and suspended in RPMI-1640 medium (K.K. Nikken Seibutsu Igaku Kenkyujo) containing 10% heat-inactivated fetal calf serum (1 × 10^6 cells/mL), followed by addition of 0.05% Staphylococcus aureus Cowan-I (SAC, CALBIOCHEM) and 10 units/mL interleukin-2 (IL-2, Genzyme) for stimulation, as well as by simultaneous addition of Compound No. 130 (final concentration: 0.1, 1 and 10 µM). The mixtures were incubated on a 96-well microtest plate at 37°C for 6 days in an atmosphere of 95% air and 5% CO2. After incubation, supernatants were collected and quantitatively measured for IgG and IgM levels by an enzyme immunoassay (a sandwich immunoassay method using two antibodies).
IgG assay: A preparation containing 40 µg/mL anti-human IgG antibody (F(ab')2, Cappel) in 50 mM sodium carbonate-sodium bicarbonate buffer (pH 9.6) was added to each well of a 96-well microtest plate (Nunc) at a rate of 100 µL/well. The plates were allowed to stand overnight at 4°C, and then rinsed 3 times with PBS containing 0.05% Tween 20. A 4-fold dilution of BlockAce (Snow Brand Milk Products Co., Ltd.) in PBS was added to the 96-well microtest plates (300 µL/well) which were then allowed to stand overnight at 4°C, followed by rinsing similarly. Next, a culture supernatant was serially diluted with a 4-fold dilution of BlockAce in PBS and a series of dilutions were added at a rate of 100 µL/well to the 96-well microtest plates which were then allowed to stand at 25°C for 1 hour, followed by rinsing similarly. Thereafter, a 2500-fold dilution of peroxidase-labeled mouse anti-human IgG antibody (Zymed) was added at a rate of 100 µL/well to the 96-well microtest plates which were then allowed to stand at 25°C for 1 hour, followed by rinsing similarly. A coloring kit for peroxidase (Sumitomo Bakelite) was added at a rate of 100 µL/well to each well which was subjected to an enzyme reaction for 15 to 30 minutes at room temperature, followed by addition of 1 N hydrochloric acid at a rate of 100 µL/well. The resultant colored product was measured for an optical density (OD) at 450 nm for a test wavelength and at 650 nm for a reference wavelength in a microplate reader. IgG levels are calculated using a calibration curve of a standard IgG.
IgM assay: The procedures for the IgG assay as aforementioned were repeated except that the anti-human IgG antibody (F(ab')2) was replaced to anti-human IgM antibody (F(ab')2, Cappel) and the peroxidase-labeled mouse anti-human IgG antibody also to peroxidase-labeled mouse anti-human IgM antibody (Zymed; 2,000-fold dilution). IgM levels are obtained in the same manner as for the IgG assay.

NC/Jic mice = test: Spontaneously manifested allergic dermatitis in NC/Jic mice (ointment); format: in vivo
Experimental: Compound No. 130 was well blended with an equivalent mixture of polyethylene glycol 400 and polyethylene glycol 4000 to give an approximately homogeneous product. Thus, an ointment containing the test compound at a rate of 0.1% was prepared. For control groups, an ointment base alone was employed.
Male NC/Jic mice (body weight, 24.1 to 31.9 g; age, 12 to 24 weeks old; supplier, Clea Japan, Inc.) were checked for their health after purchase. Immediately after the health check, the mice were housed under conventional conditions until dermatitis occurred. Mouse heads surrounding auricle portions were observed by eye once daily during the preparatory housing and, after a start in painting with ointments, once daily prior to painting. The severity of spontaneous dermatitis was scored according to a pre-assigned sore table (Table 8) for the observation of dermatitis. Animals seriatim used in the experiment were selected from those showing signs of dermatitis with score 1 or 2 for 3 consecutive days or longer.
The ointment was warmed to about 37°C prior to administration, and open-painted onto diseased sites at 100 mg/dosage/day. Seven weeks were set as a drug application period.

[2] = read-out: IgG production of PBMC, percent inhibition
[3] = read-out: IgM production of PBMC, percent inhibition

Work on CNC(=O)[C@H](Cc1ccc(NC(=N)N)cc1)NC(=O)[C@H](CC(C)C)C(CCCc1ccccc1)C(=O)NO (single isomer, unassigned) [Compound No. 130, N-[4-(N-Hydroxyamino)-2(R)-isobutyl-3(R or S)-(3-phenyltrimethylene)succinyl)-L-4'-guanidophenylalanine-N-methylamide 1 acetate] yielded an inhibition at 0.1 µM [1, 2] of 84.5%, an inhibition at 0.1 µM [1, 3] of 32.9% and an inhibition at 1 µM [1, 2] of 96.1%. It also gave an inhibition at 1 µM [1, 3] of 68.1%, an inhibition at 10 µM [1, 2] of 96% and an inhibition at 10 µM [1, 3] of 63.4%. The “Dermatitis Score (Average ± S. D.*)” value (NC/Jic mice; 0.1 % ointment, 100 mg/dosage/day for seven weeks, score (0-4) on Day 49, 3 animals, ointment base 3.7 ± 0.6) was 2.3 ± 1.5, the “scratching actions (individual animals)” value (NC/Jic mice; 0.1% ointment, counted for 30 minutes before painting, Days 47 to 48, ointment base 126, 138, 206) was 19 scratching actions and 81 scratching actions and 177 scratching actions and the “scratching actions (average)” value (NC/Jic mice; 0.1% ointment, counted for 30 minutes before painting, Days 47 to 48, ointment base average 157) was 92 scratching actions.
